Earlier results on one compound are cited in patent US20140154346A1, “USE OF FENUGREEK EXTRACT TO ENHANCE FEMALE LIBIDO” (GE NUTRIENTS, INC., priority 2012, published 2014).

The series relates to women with hypoactive sexual disorder. To be noted: 300 μg/day, 12 months; also increase in desire and decrease in stress.

Take `C[C@]12CC[C@H]3[C@@H](CCC4=CC(=O)CC[C@@]43C)[C@@H]1CC[C@@H]2O` [testosterone]: the “frequency of satisfying sexual encounters” value is listed as “increased frequency”.
